Laboratory results reported in ChEMBL document CHEMBL3885881, “DrugMatrix”.

Organism: Rattus norvegicus
Assay: DrugMatrix - Regimen: Daily Repeat
Assay type: toxicity, organism-based, Sprague-Dawley
Parameters: regimen Daily Repeat, gender Male, age 6-8 weeks
Conditions: in vivo, iv, vehicle 100 % SALINE; for ABSOLUTE BASOPHIL / ABSOLUTE EOSINOPHIL / ABSOLUTE LYMPHOCYTE / ABSOLUTE MONOCYTE / ABSOLUTE SEGMENTED NEUTROPHIL / BASOPHIL / EOSINOPHIL / ERYTHROCYTE COUNT / HEMATOCRIT / HEMOGLOBIN / LEUKOCYTE COUNT / LYMPHOCYTE / MEAN CORPUSCULAR HEMOGLOBIN / MEAN CORPUSCULAR HEMOGLOBIN CONCENTRATION / MEAN CORPUSCULAR VOLUME / MONOCYTE / NEUTROPHIL / NUCLEATED RED BLOOD CELLS / PLATELET COUNT: tissue Blood; for ALANINE AMINOTRANSFERASE / ALBUMIN / ALKALINE PHOSPHATASE / ASPARTATE AMINOTRANSFERASE / BLOOD UREA NITROGEN / CARBON DIOXIDE / CHLORIDE / CHOLESTEROL / CREATINE PHOSPHOKINASE / CREATININE / GLUCOSE / LACTATE DEHYDROGENASE / LIPASE / PHOSPHORUS / POTASSIUM / SODIUM / TOTAL BILIRUBIN / TOTAL PROTEIN / URIC ACID: tissue Plasma
[1] = 0.5 mg/kg, 72 h, dose level Low, time 3 day
[2] = 0.5 mg/kg, 120 h, dose level Low, time 5 day
[3] = […], 72 h, dose 2.5 mg/Kg, dose level High, time 3 day
[4] = […], 120 h, dose 2.5 mg/Kg, dose level High, time 5 day

CC[N+](CC)(CC)CCOc1cccc(OCC[N+](CC)(CC)CC)c1OCC[N+](CC)(CC)CC.[I-].[I-].[I-] [GALLAMINE TRIETHIODIDE]
ABSOLUTE BASOPHIL [1]: 0 CELLS/uL | ABSOLUTE EOSINOPHIL [1]: 0 CELLS/uL | ABSOLUTE LYMPHOCYTE [1]: 12252.67 CELLS/uL | ABSOLUTE MONOCYTE [1]: 379 CELLS/uL | ABSOLUTE SEGMENTED NEUTROPHIL [1]: 1435 CELLS/uL | BASOPHIL [1]: 0% | EOSINOPHIL [1]: 0% | ERYTHROCYTE COUNT [1]: 5.22 x10E6/uL | HEMATOCRIT [1]: 33.63% | HEMOGLOBIN [1]: 13.53 G/DL | LEUKOCYTE COUNT [1]: 14.07 x10E3/uL | LYMPHOCYTE [1]: 87% | MEAN CORPUSCULAR HEMOGLOBIN [1]: 25.93 pg | MEAN CORPUSCULAR HEMOGLOBIN CONCENTRATION [1]: 40.3 G/DL | MEAN CORPUSCULAR VOLUME [1]: 64.4 fL | MONOCYTE [1]: 2.67% | NEUTROPHIL [1]: 10.33% | NUCLEATED RED BLOOD CELLS [1]: 0.33 /100WBC | PLATELET COUNT [1]: 1175 x10E3/uL | ALANINE AMINOTRANSFERASE [1]: 52 u/L | ALBUMIN [1]: 4.07 G/DL | ALKALINE PHOSPHATASE [1]: 372 u/L | ASPARTATE AMINOTRANSFERASE [1]: 79.33 u/L | BLOOD UREA NITROGEN [1]: 15.33 mg/dL | CARBON DIOXIDE [1]: 23.33 mmol/L | CHLORIDE [1]: 104.33 MEQ/L | CHOLESTEROL [1]: 71.33 mg/dL | CREATINE PHOSPHOKINASE [1]: 361.33 u/L | CREATININE [1]: 0.14 mg/dL | GLUCOSE [1]: 161.67 mg/dL | LACTATE DEHYDROGENASE [1]: 163 u/L | LIPASE [1]: 9 u/L | PHOSPHORUS [1]: 13.97 mg/dL | POTASSIUM [1]: 6.65 MEQ/L | SODIUM [1]: 146.57 MEQ/L | TOTAL BILIRUBIN [1]: 0.2 mg/dL | TOTAL PROTEIN [1]: 5.67 G/DL | URIC ACID [1]: 1.4 mg/dL | ABSOLUTE BASOPHIL [2]: 0 CELLS/uL | ABSOLUTE EOSINOPHIL [2]: 43 CELLS/uL | ABSOLUTE LYMPHOCYTE [2]: 13831.33 CELLS/uL | ABSOLUTE MONOCYTE [2]: 112.67 CELLS/uL | ABSOLUTE SEGMENTED NEUTROPHIL [2]: 1346.33 CELLS/uL | BASOPHIL [2]: 0% | EOSINOPHIL [2]: 0.33% | ERYTHROCYTE COUNT [2]: 5.96 x10E6/uL | HEMATOCRIT [2]: 37.33% | HEMOGLOBIN [2]: 14.57 G/DL | LEUKOCYTE COUNT [2]: 15.33 x10E3/uL | LYMPHOCYTE [2]: 90.33% | MEAN CORPUSCULAR HEMOGLOBIN [2]: 24.5 pg | MEAN CORPUSCULAR HEMOGLOBIN CONCENTRATION [2]: 39.03 G/DL | MEAN CORPUSCULAR VOLUME [2]: 62.7 fL | MONOCYTE [2]: 0.67% | NEUTROPHIL [2]: 8.67% | NUCLEATED RED BLOOD CELLS [2]: 0.33 /100WBC | PLATELET COUNT [2]: 1517.33 x10E3/uL | ALANINE AMINOTRANSFERASE [2]: 52.33 u/L | ALBUMIN [2]: 4.17 G/DL | ALKALINE PHOSPHATASE [2]: 369.67 u/L | ASPARTATE AMINOTRANSFERASE [2]: 80.67 u/L | BLOOD UREA NITROGEN [2]: 15.67 mg/dL | CARBON DIOXIDE [2]: 22 mmol/L | CHLORIDE [2]: 104 MEQ/L | CHOLESTEROL [2]: 61.67 mg/dL | CREATINE PHOSPHOKINASE [2]: 215 u/L | CREATININE [2]: 0.26 mg/dL | GLUCOSE [2]: 161 mg/dL | LACTATE DEHYDROGENASE [2]: 282 u/L | LIPASE [2]: 10 u/L | PHOSPHORUS [2]: 14.53 mg/dL | POTASSIUM [2]: 7.06 MEQ/L | SODIUM [2]: 146.97 MEQ/L | TOTAL BILIRUBIN [2]: 0.2 mg/dL | TOTAL PROTEIN [2]: 5.93 G/DL | URIC ACID [2]: 1.57 mg/dL | ABSOLUTE BASOPHIL [3]: 0 CELLS/uL | ABSOLUTE EOSINOPHIL [3]: 0 CELLS/uL | ABSOLUTE LYMPHOCYTE [3]: 15571.67 CELLS/uL | ABSOLUTE MONOCYTE [3]: 0 CELLS/uL | ABSOLUTE SEGMENTED NEUTROPHIL [3]: 1428.33 CELLS/uL | BASOPHIL [3]: 0% | EOSINOPHIL [3]: 0% | ERYTHROCYTE COUNT [3]: 5.32 x10E6/uL | HEMATOCRIT [3]: 34.57% | HEMOGLOBIN [3]: 13.83 G/DL | LEUKOCYTE COUNT [3]: 17 x10E3/uL | LYMPHOCYTE [3]: 91.67% | MEAN CORPUSCULAR HEMOGLOBIN [3]: 25.97 pg | MEAN CORPUSCULAR HEMOGLOBIN CONCENTRATION [3]: 40 G/DL | MEAN CORPUSCULAR VOLUME [3]: 64.93 fL | MONOCYTE [3]: 0% | NEUTROPHIL [3]: 8.33% | NUCLEATED RED BLOOD CELLS [3]: 1 /100WBC | PLATELET COUNT [3]: 1293 x10E3/uL | ALANINE AMINOTRANSFERASE [3]: 50 u/L | ALBUMIN [3]: 4.23 G/DL | ALKALINE PHOSPHATASE [3]: 314.67 u/L | ASPARTATE AMINOTRANSFERASE [3]: 74 u/L | BLOOD UREA NITROGEN [3]: 15.67 mg/dL | CARBON DIOXIDE [3]: 22.33 mmol/L | CHLORIDE [3]: 104.33 MEQ/L | CHOLESTEROL [3]: 65.67 mg/dL | CREATINE PHOSPHOKINASE [3]: 204 u/L | CREATININE [3]: 0.27 mg/dL | GLUCOSE [3]: 155 mg/dL | LACTATE DEHYDROGENASE [3]: 158 u/L | LIPASE [3]: 11.33 u/L | PHOSPHORUS [3]: 12.97 mg/dL | POTASSIUM [3]: 6.92 MEQ/L | SODIUM [3]: 147.33 MEQ/L | TOTAL BILIRUBIN [3]: 0.17 mg/dL | TOTAL PROTEIN [3]: 6 G/DL | URIC ACID [3]: 1.53 mg/dL | ABSOLUTE BASOPHIL [4]: 0 CELLS/uL | ABSOLUTE EOSINOPHIL [4]: 0 CELLS/uL | ABSOLUTE LYMPHOCYTE [4]: 13793.67 CELLS/uL | ABSOLUTE MONOCYTE [4]: 142.67 CELLS/uL | ABSOLUTE SEGMENTED NEUTROPHIL [4]: 830.33 CELLS/uL | BASOPHIL [4]: 0% | EOSINOPHIL [4]: 0% | ERYTHROCYTE COUNT [4]: 5.65 x10E6/uL | HEMATOCRIT [4]: 35.97% | HEMOGLOBIN [4]: 14.53 G/DL | LEUKOCYTE COUNT [4]: 14.77 x10E3/uL | LYMPHOCYTE [4]: 93.33% | MEAN CORPUSCULAR HEMOGLOBIN [4]: 25.73 pg | MEAN CORPUSCULAR HEMOGLOBIN CONCENTRATION [4]: 40.4 G/DL | MEAN CORPUSCULAR VOLUME [4]: 63.63 fL | MONOCYTE [4]: 1% | NEUTROPHIL [4]: 5.67% | NUCLEATED RED BLOOD CELLS [4]: 0.33 /100WBC | PLATELET COUNT [4]: 1259.67 x10E3/uL | ALANINE AMINOTRANSFERASE [4]: 54 u/L | ALBUMIN [4]: 4.23 G/DL | ALKALINE PHOSPHATASE [4]: 276.67 u/L | ASPARTATE AMINOTRANSFERASE [4]: 81.33 u/L | BLOOD UREA NITROGEN [4]: 15.67 mg/dL | CARBON DIOXIDE [4]: 21.33 mmol/L | CHLORIDE [4]: 105 MEQ/L | CHOLESTEROL [4]: 56.33 mg/dL | CREATINE PHOSPHOKINASE [4]: 248 u/L | CREATININE [4]: 0.19 mg/dL | GLUCOSE [4]: 147 mg/dL | LACTATE DEHYDROGENASE [4]: 275.33 u/L | LIPASE [4]: 10 u/L | PHOSPHORUS [4]: 12.67 mg/dL | POTASSIUM [4]: 6.58 MEQ/L | SODIUM [4]: 146.13 MEQ/L | TOTAL BILIRUBIN [4]: 0.2 mg/dL | TOTAL PROTEIN [4]: 6.13 G/DL | URIC ACID [4]: 1.47 mg/dL
